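1) Cells in 96-well plates. 2) Compound, 48 h, 5 concentrations. 3) Linear interpolation between surrounding doses. 4) Unreached endpoint = highest concentration. Here, GI50 denotes the concentration required for 50% inhibition of growth.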 The source made the active and inactive calls. Cut-off read from the data, not from the text of the source: active = GI50 up to about 1.1 µM and inactive = higher. Where a SMILES comes first, the peptide text is derived from it. The star is where a group is joined. Fmoc = O=C(OCC1c2ccccc2-c2ccccc21)*; Boc = CC(C)(C)OC(=O)*
Tests used:
Experiment in all cases: NCI anticancer screen, dose series, 48 h
[1] = system: T47D
[2] = system: MDA-N
[3] = system: NCI-H226
[4] = system: UACC-257
[5] = system: MCF7
[6] = system: UO-31
[7] = system: ACHN
[8] = system: OVCAR-3
[9] = system: EKVX
[10] = system: Hs-578T
[11] = system: NCI-H23
[12] = system: K562
[13] = system: A549
[14] = system: KM12
[15] = system: SNB-19
[16] = system: CCRF-CEM
[17] = system: HOP-92
[18] = system: MDA-MB-231
[19] = system: LOX IMVI
[20] = system: M14

Measured: GI50

Cc1nc(Nc2nc3ccccc3[nH]2)[nH]c(=O)c1CCO
inactive: [1] 7.6 µM | [2] > 92 µM | [3] 26.6 µM | [4] 45.8 µM | [5] > 100 µM | [6] 46.8 µM | [7] 50.9 µM | [8] > 100 µM | [9] > 100 µM | [10] 20.6 µM | [11] 98.6 µM | [12] > 100 µM | [13] > 100 µM | [14] > 100 µM | [15] > 100 µM | [16] > 69 µM | [17] 55.3 µM | [18] 27.4 µM | [19] 44.8 µM | [20] 27.2 µM

COc1c(Cl)ccc(Cl)c1C(=O)NNC(=O)c1c(Cl)c(Cl)c(Cl)c(Cl)c1-c1nc2cc(C(=O)c3ccccc3)ccc2[nH]1
inactive: [1] 15.5 µM | [2] 33.3 µM | [3] 45.6 µM | [4] 76.6 µM | [5] 44.4 µM | [6] 60.4 µM | [7] 37.5 µM | [8] 30.5 µM | [9] 36.8 µM | [10] 54.1 µM | [11] 64.1 µM | [12] 26.7 µM | [13] 56 µM | [14] 80.5 µM | [15] > 100 µM | [16] 28.8 µM | [17] 52.6 µM | [18] 37.6 µM | [19] 55.1 µM | [20] 52.6 µM

COc1ccc(C2=C(Cl)c3cc(OC)c(OC)cc3C2Cl)cc1 (stereo not given)
inactive: [1] 13.3 µM | [2] 10.1 µM | [3] 21.3 µM | [4] 17.1 µM | [5] 10.5 µM | [6] 6.55 µM | [7] 13.9 µM | [8] 16.8 µM | [9] 16.9 µM | [10] 17.3 µM | [11] > 37.4 µM | [12] 5.24 µM | [13] 15.4 µM | [14] 13.6 µM | [15] 18.7 µM | [16] 2.84 µM | [17] 12.2 µM | [18] 17.7 µM | [19] 12.2 µM | [20] 17.2 µM

CC(C)(C)OC(=O)NCCCCC(NC(=O)OCC1c2ccccc2-c2ccccc21)C(=O)N1CCCC1C(=O)NCC(N)=O (stereo not drawn) (Fmoc-Lys(Boc)-Pro-Gly-NH2; configuration not given here)
inactive: [1] 24.7 µM | [2] 19.3 µM | [3] > 100 µM | [4] > 100 µM | [5] 43.9 µM | [6] 15.3 µM | [7] 17.9 µM | [8] 45.1 µM | [9] 76.2 µM | [10] > 100 µM | [11] 94.8 µM | [12] 48.1 µM | [13] 51.4 µM | [14] 20.7 µM | [15] > 100 µM | [16] 76.6 µM | [17] 20.4 µM | [18] 46.7 µM | [19] 21.3 µM | [20] 35.1 µM

CCCOC(=O)c1cc(O)c(O)c(O)c1 [PROPYL GALLATE]
inactive: [1] 62.1 µM | [2] 14.7 µM | [3] 17.7 µM | [4] > 100 µM | [5] 42 µM | [6] 8.95 µM | [7] 46.2 µM | [8] 25.7 µM | [9] 27.7 µM | [10] 17.5 µM | [11] > 100 µM | [12] > 100 µM | [13] 27.2 µM | [14] 20.5 µM | [15] 57.4 µM | [16] > 100 µM | [17] 60.4 µM | [18] 58.1 µM | [19] 16.1 µM | [20] 20.8 µM

Reference: ChEMBL document CHEMBL1201862, “PubChem BioAssay data set” (2004)
